Tests used:
[1] = target: T1, human α2B -adrenergic receptor (NGC-α2B) (Homo sapiens, UniProt P18089)
T1 sequence (P18089 1-450): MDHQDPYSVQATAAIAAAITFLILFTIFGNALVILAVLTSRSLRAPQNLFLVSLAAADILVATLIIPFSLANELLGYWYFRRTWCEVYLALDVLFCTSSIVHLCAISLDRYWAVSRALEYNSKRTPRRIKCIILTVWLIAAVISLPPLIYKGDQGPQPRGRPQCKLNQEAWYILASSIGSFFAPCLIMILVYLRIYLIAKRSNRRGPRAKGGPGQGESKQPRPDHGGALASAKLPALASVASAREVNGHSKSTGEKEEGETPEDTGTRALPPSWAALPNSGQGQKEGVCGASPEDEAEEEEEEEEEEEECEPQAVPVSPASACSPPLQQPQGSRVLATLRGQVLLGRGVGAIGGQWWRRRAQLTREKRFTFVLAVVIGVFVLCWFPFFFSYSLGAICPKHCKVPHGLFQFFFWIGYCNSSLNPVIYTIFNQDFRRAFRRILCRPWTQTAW

[2] = target: T1, human α2B -adrenergic receptor (NGC-α2B); remark: listed apart in the source
[3] = target: T1, human α2B -adrenergic receptor (NGC-α2B); experiment: biochemical

| inhibition [2] | ability to compete with 3H-Rauwolscine for binding (in words) ([2]; pNGC-α2B transfected Cos-7 or Ltk- cell membranes) | SMILES | nH (Hill Coefficient) [1] | Ki [3] |
| --- | --- | --- | --- | --- |
| – | – | O=C(c1ccc(F)cc1)C1CCN(CCn2c(=O)[nH]c3ccccc3c2=O)CC1 [Ketanserin] | 1.21 ± 0.12 | – |
| 15% | inability | NCCc1c[nH]c2ccc(O)cc12 [Serotonin] | – | – |
| – | – | COc1cccc(OC)c1OCCNCC1COc2ccccc2O1 (centres unmarked) [WB-4101] | 1.5 | 0.055 µM |

Source: US5053337A, “DNA encoding an α2B -adrenergic receptor” (Neurogenetic Corporation, priority 1989, dated 1991)
